Source: ChEMBL document CHEMBL5126561, “New pyrazole-tetrazole hybrid compounds as potent α-amylase and non-enzymatic glycation inhibitors” (Bioorg Med Chem Lett, 2022)
Converted amounts (≈) assume the structure as drawn.

Tests used:
Alpha amylase = molecular target: T1, Alpha amylase (Homo sapiens, UniProt P0DUB6); experiment: Inhibition of alpha-amylase (unknown origin) assessed as reduction in conversion of starch to glucose preincubated for 10 mins followed by substrate addition and measured after 20 mins by DNSA reagent based spectrophotometric analysis
T1 sequence (P0DUB6 whole entry): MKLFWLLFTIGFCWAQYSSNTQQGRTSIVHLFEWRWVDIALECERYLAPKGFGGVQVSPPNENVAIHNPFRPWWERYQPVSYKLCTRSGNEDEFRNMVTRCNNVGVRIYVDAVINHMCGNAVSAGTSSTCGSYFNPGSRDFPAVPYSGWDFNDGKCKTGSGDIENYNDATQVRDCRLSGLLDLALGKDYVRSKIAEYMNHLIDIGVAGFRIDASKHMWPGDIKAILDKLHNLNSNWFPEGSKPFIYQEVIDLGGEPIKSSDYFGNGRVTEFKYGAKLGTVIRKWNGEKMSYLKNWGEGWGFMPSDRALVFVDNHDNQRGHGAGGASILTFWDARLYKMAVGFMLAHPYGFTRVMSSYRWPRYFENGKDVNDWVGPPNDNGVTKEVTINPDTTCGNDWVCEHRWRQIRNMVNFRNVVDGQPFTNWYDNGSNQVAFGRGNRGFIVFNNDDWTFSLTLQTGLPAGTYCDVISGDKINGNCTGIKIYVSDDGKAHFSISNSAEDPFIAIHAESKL

[1] = Lipophilicity, logP of compound; assay type: physicochemical; details: octanol/water
Hemoglobin HbA = Hemoglobin HbA (Homo sapiens, UniProt P68871+P69905); experiment: Inhibition of non-enzymatic glycation in hemoglobin (unknown origin) by spectrophotometric analysis; assay type: protein-complex assay
[2] = molecular target: Hemoglobin HbA (Homo sapiens) (UniProt P69905+P68871); experiment: Potency index, ratio of gallic acid IC50 to test compound IC50 for inhibition of non-enzymatic glycation in hemoglobin (unknown origin) by spectrophotometric analysis; assay type: protein-complex assay
[3] = molecular target: Alpha amylase (Homo sapiens) (UniProt P0DUB6); experiment: Potency index, ratio of acarbose IC50 to test compound IC50 for inhibition of alpha-amylase (unknown origin) assessed as reduction in conversion of starch to glucose preincubated for 10 mins followed by substrate addition and measured after 20 mins by DNSA reagent based spectrophotometric analysis; details: time 30.0 min

Hemoglobin HbA, sequence (P69905 whole entry): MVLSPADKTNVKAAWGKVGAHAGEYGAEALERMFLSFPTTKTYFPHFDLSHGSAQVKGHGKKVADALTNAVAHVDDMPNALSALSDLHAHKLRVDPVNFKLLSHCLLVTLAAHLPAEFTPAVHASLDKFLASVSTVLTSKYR
Hemoglobin HbA, sequence (P68871 whole entry): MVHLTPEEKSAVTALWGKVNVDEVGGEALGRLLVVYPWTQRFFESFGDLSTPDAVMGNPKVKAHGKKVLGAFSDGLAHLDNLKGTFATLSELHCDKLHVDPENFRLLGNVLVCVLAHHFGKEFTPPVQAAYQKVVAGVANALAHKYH
Hemoglobin HbA (Homo sapiens), sequence (P68871 2-147 partner limits assumed): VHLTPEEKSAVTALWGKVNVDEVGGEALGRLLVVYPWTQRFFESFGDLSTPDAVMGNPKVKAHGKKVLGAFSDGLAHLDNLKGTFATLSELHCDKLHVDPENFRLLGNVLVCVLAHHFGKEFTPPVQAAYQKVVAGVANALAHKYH
Hemoglobin HbA (Homo sapiens), sequence (P69905 2-142 limits assumed): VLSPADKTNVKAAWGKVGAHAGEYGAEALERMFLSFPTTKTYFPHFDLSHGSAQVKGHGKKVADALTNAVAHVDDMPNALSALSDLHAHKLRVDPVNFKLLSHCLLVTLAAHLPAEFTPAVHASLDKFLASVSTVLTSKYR

IC50 (Alpha amylase) | logP [1] | IC50 (Hemoglobin HbA) | Ratio IC50 [2] | Ratio IC50 [3] | Structure (SMILES)
0.95 mg/mL (≈ 3.94 mM) | 1.69 | 1950 µM |  |  | Cc1cc(Cn2nnc(-c3ccccn3)n2)n[nH]1
4.82 10^-3mg/ml | 0.86 | 352 µM | 2 | 70 | Cc1cc(Cn2nnnc2-c2ccccn2)n[nH]1
0.023 mg/mL (≈ 0.0815 mM) | 2.1 | 1200 µM |  | 15 | CCn1nc(Cn2nnnc2Cc2ccccc2)cc1C
1.13 10^-4mg/ml | 1.34 | 223 µM | 2.8 | 3010 | CCn1nc(Cn2nnnc2-c2ccccn2)cc1C
5.59 mg/mL (≈ 22 mM) | 2.5 | 1060 µM |  |  | Cc1cc(Cn2nnc(Cc3ccccc3)n2)n[nH]1
0.54 mg/mL (≈ 2.01 mM) | 2.08 | 2520 µM |  |  | CCn1nc(Cn2nnc(-c3ccccn3)n2)cc1C
1.97 mg/mL (≈ 7.75 mM) | 1.62 | 1020 µM |  |  | Cc1cc(Cn2nnnc2Cc2ccccc2)n[nH]1
2.36 mg/mL (≈ 8.36 mM) | 2.88 | 1970 µM |  |  | CCn1nc(Cn2nnc(Cc3ccccc3)n2)cc1C

Structure (SMILES) | IC50 (Alpha amylase) | logP [1] | IC50 (Hemoglobin HbA) | Ratio IC50 [2] | Ratio IC50 [3]
O=C(O)c1cc(O)c(O)c(O)c1 [GALLIC ACID] |  |  | 999 µM |  | 
